Test results taken from ChEMBL document CHEMBL1123140, “Acylamino boronic acids and difluoroborane analogues of amino acids: potent inhibitors of chymotrypsin and elastase” (J Med Chem, 1985).

Key:
[1] = target: Chymotrypsinogen B (Homo sapiens, UniProt P17538); assay: Competitive inhibition of alpha-chymotrypsin
[2] = Competitive inhibition of porcine elastase by the compound was evaluated; parameters: species or system Sus scrofa

Sequence of Chymotrypsinogen B (P17538 34-164 limits assumed, other chains not shown): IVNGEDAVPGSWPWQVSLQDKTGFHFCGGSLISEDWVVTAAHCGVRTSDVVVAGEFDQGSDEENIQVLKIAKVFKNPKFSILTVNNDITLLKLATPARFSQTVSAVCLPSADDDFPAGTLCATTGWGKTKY
Sequence of Chymotrypsinogen B (P17538 167-263 limits assumed, other chains not shown): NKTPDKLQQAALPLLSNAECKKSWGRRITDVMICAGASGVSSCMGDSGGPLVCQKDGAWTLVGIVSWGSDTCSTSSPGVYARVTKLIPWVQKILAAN

CC(=O)N[C@@H](Cc1ccccc1)B(O)O
Ki [1]: 2100 nM

CC(NC(=O)OCc1ccccc1)C(=O)N[C@@H](C)B(F)F (stereo not given in full)
Ki [2]: 34500 nM

CC[C@H](C)[C@H](NC(=O)C(C)NC(=O)OCc1ccccc1)B(O)O (stereo not given in full)
Ki [2]: 120 nM

O=C(NC(B(F)F)c1ccccc1)c1ccccc1 (stereo not given)
Ki [1]: 5000 nM

O=C(NC(Cc1ccccc1)B(F)F)c1ccccc1 (stereo not given)
Ki [1]: 650 nM

O=C(N[C@@H](Cc1ccccc1)B(F)F)c1ccccc1
Ki [1]: 270 nM

CC(NC(=O)OCc1ccccc1)C(=O)N[C@H](B(O)O)C(C)C (stereo not given in full)
Ki [2]: 1100 nM

CC(NC(=O)OCc1ccccc1)C(=O)NC(B(F)F)c1ccccc1 (stereo not given)
Ki [1]: 2000 nM

O=C(N[C@@H](Cc1ccccc1)B(O)O)c1ccccc1
Ki [1]: 360 nM

CC(NC(=O)OCc1ccccc1)C(=O)N[C@H](B(F)F)C(C)C (stereo not given in full)
Ki [2]: 1000 nM

CC(=O)N[C@@H](Cc1ccccc1)B(F)F
Ki [1]: 1700 nM

CC(=O)NC(Cc1ccccc1)B(O)O (stereo not given)
Ki [1]: 6500 nM

CC(=O)NC(Cc1ccccc1)B(F)F (stereo not given)
Ki [1]: 7400 nM

O=C(NC(Cc1ccccc1)B(O)O)c1ccccc1 (stereo not given)
Ki [1]: 650 nM

CC[C@H](C)[C@H](NC(=O)C(C)NC(=O)OCc1ccccc1)B(F)F (stereo not given in full)
Ki [2]: 100 nM
